The text below walks through data of patent US12421254B2, “KRAS modulators and uses thereof” (Quanta Therapeutics, Inc., priority 2023, dated 2025).

Some results are limits rather than exact numbers.

Assay [1] concerns the target GST-tagged KRAS-G12D (2-169) (Homo sapiens, UniProt P01116, G12D). Kind of assay: Nucleotide exchange assay (NEA), SOS-mediated, HTRF, KRAS G12D. It counts as biochemical. To be noted: Table 2; IC50 extracted at 30 min; 20 nM SOScat; read-out: NEA-G12D (uM) IC50. In short, it runs like this: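 Compound preincubated 1 h at RT with 0.25 nM GST-KRAS-G12D (2-169) and anti-GST Tb donor, then 20 nM SOS1cat (564-1049) and 150 nM GTP-DY-647P1 added; pH 7.3 HEPES buffer with MgCl2 and DTT. HTRF monitored at RT; % inhibition versus DMSO and no-SOS blank, 4-parameter IC50 taken at 30 min.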
(In general: In TR-FRET formats the signal depends on donor and acceptor labels being close together.)

Assay [2] has as its target T1, NRAS/RAF1 (Homo sapiens, UniProt P01111).
T1 construct: (1-169); His6-SUMO (N, cleaved yes)
Kind of assay: Protein-protein interaction (PPI) HTRF assay w.t. NRAS/RAF1. The following applies: Table 3; wt NRAS/RAF1. The assay is classed as binding. As to the method: (§1) When RAS proteins are in the active GTP-bound conformation, they bind the effector protein RAF1 at the N-terminus Ras-binding domain (RBD, residues 52-131) (Tran, et al., 2021). Homogenous time resolved fluorescence (HTRF) was used to monitor the interaction between wt or mutant KRAS and RAF1 or wt NRAS and RAF1. Compounds were assayed in the presence of KRAS G12D/V and RAF1 versus wt KRAS to assess activity against mutant and w.t. KRAS. Similarly, compounds were then assayed in the presence of w.t. NRAS and RAF1 to assess RAS isoform selectivity. In all assay formats, His-tagged RAF1 protein was incubated with the HTRF donor, anti-6His Tb Cryptate gold (Cisbio 61DB10RDF), and biotinylated RAS proteins were incubated with the HTRF acceptor, streptavidin-d2 (CisBio 610SADLA). The intensity of the fluorescence signal emitted is proportional to binding between the two proteins. The donor solution was prepared by mixing 16 nM His-tagged RAF1 in protein dilution buffer with 1:100 anti-6His Tb cryptate in PPI-Terbium detection buffer. 16 nM biotinylated RAS protein was diluted into protein dilution buffer (50 mM Tris-HCl pH 7.5, 150 mM NaCl, 0.1 mM MgCl2, 1 mM TCEP, 0.005% Tween20) and mixed with 1:2000 Streptavidin-d2 diluted in PPI-Terbium detection buffer (CisBio 61DB10RDF). 50× compound in DMSO was mixed with 16 nM KRAS-acceptor solution and incubated for 30 minutes at room temperature. After compound pre-incubation with KRAS, the RAF1 donor solution was added to the KRAS-acceptor solution and incubated for 1 hour at room temperature. The fluorescence signal emitted was monitored at 665 nm and 615 nm using an Envision multimode plate reader. The HTRF ratio (665/615) was calculated and normalized to 0% inhibition in the absence of compound and 100% inhibition in the presence of untagged RAF1 protein. PPI KRAS G12D/RAF1, KRAS G12V/RAF1, w.t. KRAS/RAF1 and NRAS/RAF1 IC50 (uM) values of selected compounds are depicted in Table 3 and Table 4 with compounds having a value <0.1 uM as ++++; ≥0.1 uM to 1 uM as +++; ≥1 uM to 10 uM as ++; ≥10 uM to 100 uM as +; and ≥100 uM as NA.

The target of assay [3] is T2, KRAS G12D/RAF1 (Homo sapiens, UniProt P01116, G12D).
T2 construct: KRAS (1-169) proteins were expressed in BL21 (DE3)-CodonPlus E. coli; His6-MBP (N, cleaved yes)
The assay can be described thus: Protein-protein interaction (PPI) HTRF assay KRAS G12D/RAF1. To be noted: Table 2. It counts as binding. As to the method: as §1

The subject of assay [4] is phospho-ERK in AGS cells. Kind of assay: pERK In Cell Western (ICW) assay (Method B), AGS. It counts as cell-based. The following applies: Homo sapiens, Table 2, 3 hours. As to the method:
pERK ICW is a high throughput screening assay to evaluate the cellular potency of mutant KRAS small molecule inhibitors. KRAS mutant cell lines AGS, GP2D (KRAS-G12D) as well as SW620 (KRAS-G12V) were purchased from ATCC and maintained respectively in RPMI/DMEM/RPMI medium supplemented with 10% fetal bovine serum.
Cells grown in exponential phase were trypsinized, resuspended in fresh media, and viable cells were counted using a cell counter with Trypan Blue (BioRad TC20). Cells were seeded into 384-well plate (Greiner 781091) at density of 5,000 cells/well for AGS and 10,000 cells/well for GP2D/SW620 and allowed to grow overnight in a 37° C. CO2 incubator. The next day, compounds were dispensed into wells with a ½ log, 9-point serial dilution using a Tecan D300e dispenser and incubated for 3 hours in a 37° C. CO2 incubator. Cells were then fixed with paraformaldehyde (Electron Microscopy Sciences, 15710, 4% final concentration) for 30 min, permeabilized with wash buffer (1×PBS+0.1% Triton X-100) for 30 min and blocked with Odyssey blocking buffer (Li—COR 927-70001) for 1 hour, all at room temperature (RT). Phospho-ERK antibody (CST 4370L) was diluted 1:500 in Odyssey T20 (PBS) antibody diluent (Li—COR 927-75001) and incubated with cells overnight at 4° C. The next day, plates were washed 5× with wash buffer, incubated with IRDye 800 CW, Goat anti-Rabbit secondary antibody (Li—COR 926-32211, 1:800) and DRAQ5 (CST 4084L, 1:5,000) diluted in Odyssey T20 (PBS) antibody diluent for 1 hour, washed 5×, and imaged on an Odyssey CLx imaging system.
For data analysis, signal intensities from 800 (phosphor-ERK) and 700 (DRAQ5) channels were extracted, and phospho-ERK signals were normalized to DRAQ5 signals for each well and percent of blank control values were computed. Data were then imported into Graphpad Prism to compute half-maximal inhibitory concentrations (IC50) using a 4-parameter variable slope model. Z-factor for each plate was computed from signals derived from wells treated with either DMSO or 5 μM of control compound. AGS pERK ICW (Method B) IC50 (uM) values of selected compounds are depicted in Table 2 with compounds having a value ≥0.001 uM to 0.01 uM as ++++; ≥0.01 uM to 0.1 uM as +++; ≥0.1 uM to 1 uM as ++; ≥1 uM to 10 uM as + and ≥10 uM as NA.

T2 sequence (P01116 with tags, fused parts or gaps isoform P01116-2 G12D): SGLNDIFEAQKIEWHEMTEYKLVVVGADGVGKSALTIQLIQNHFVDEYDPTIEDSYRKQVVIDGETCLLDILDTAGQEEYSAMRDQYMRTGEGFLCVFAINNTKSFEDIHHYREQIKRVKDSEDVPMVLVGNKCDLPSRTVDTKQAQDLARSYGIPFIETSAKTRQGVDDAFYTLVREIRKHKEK
Chain of GST-tagged KRAS-G12D (2-169) (P01116 2-169 isoform P01116-2 G12D): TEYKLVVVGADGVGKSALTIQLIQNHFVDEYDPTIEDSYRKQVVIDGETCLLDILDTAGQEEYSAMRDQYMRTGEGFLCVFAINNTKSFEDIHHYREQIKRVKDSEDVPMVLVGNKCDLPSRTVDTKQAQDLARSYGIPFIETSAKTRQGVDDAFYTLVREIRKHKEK
T1 sequence (P01111 with tags, fused parts or gaps): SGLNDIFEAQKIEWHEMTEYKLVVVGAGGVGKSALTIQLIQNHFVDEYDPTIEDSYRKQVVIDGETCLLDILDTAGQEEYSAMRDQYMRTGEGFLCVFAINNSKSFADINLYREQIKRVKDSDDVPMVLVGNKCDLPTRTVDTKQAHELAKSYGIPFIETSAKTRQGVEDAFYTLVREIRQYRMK

Consider `N#Cc1c(N)sc(Cl)c1C1CCN(c2nc(OCC3(CN4CCOCC4)CC3)nc(N3C[C@H]4CC[C@@H](C3)N4)n2)C1` (stereo partly drawn) [Compound 4, 2-amino-5-chloro-4-[1-[4-[[1-(morpholinomethyl)cyclopropyl]methoxy]-6-[(1R,5S)-3,8-diazabicyclo[3.2.1]octan-3-yl]-1,3,5-triazin-2-yl]pyrrolidin-3-yl]thiophene-3-carbonitrile], for which the IC50 – broadly, the concentration needed to halve the response being measured – is less than 0.01 µM in assay [1], greater than 100 µM in assay [2], 1 to 10 µM in assay [3] and 1 to 10 µM in assay [4].

For the molecule `CN(C)C(=O)c1nn2c(c1Cl)CN(c1nc(OC[C@@]34CCCN3C[C@H](F)C4)nc(N3CC4(CCc5sc(N)c(C#N)c54)C3)n1)CCC2` [Compound 5, 5-[4-(2-amino-3-cyano-spiro[5,6-dihydrocyclopenta[b]thiophene-4,3′-azetidine]-1′-yl)-6-[[(2R,8S)-2-fluoro-1,2,3,5,6,7-hexahydropyrrolizin-8-yl]methoxy]-1,3,5-triazin-2-yl]-3-chloro-N,N-dimethyl-4,6,7,8-tetrahydropyrazolo[1,5-a][1,4]diazepine-2-carboxamide], the IC50 was less than 0.01 µM in assay [1], greater than 100 µM in assay [2], 10 to 100 µM in assay [3] and 0.1 to 1 µM in assay [4].
